The source of these data is patent publication US8110681B2, “Compounds for the treatment of spinal muscular atrophy and other uses” (The United States of America as represented by the …, priority 2006, dated 2012).

Like-named read-outs stand apart in the source and are kept apart here.

The test system of series [1] is luciferase reporter containing the UAG stop codon. Description: Translational read-through luciferase reporter assay, UAG stop codon. The class given is cell-based. Conditions: read-out: MaxFold Increase. The text has this: This assay is described in detail in WO 01/44516 A2. This is a cell-based luciferase reporter assay designed to detect translational read-through via insertion of a translational stop codon within the luciferase coding sequence. In the presence of compounds that promote read-through of translational stop codons, active luciferase is produced and detected via chemiluminescence. We have shown that indoprofen analogs are active in two versions of this assay—one containing a UGA stop codon and one containing a UAG stop codon. The data in the table is from the luciferase reporter containing the UAG stop codon. This is the first stop codon downstream of the improper splice junction between exons 6 and 8 in the human SMN2 transcript.
Background: Reporter assays use an easily measured gene product as a stand-in for the process of interest.

The subject of series [2] is SMN2-linked luciferase-reporter gene construct. Description: SMN splice reporter assay (SMN2-linked luciferase reporter, Example 10). The class given is cell-based. Conditions: for maximal fold induction: read-out: SMN Splice Reporter Assay (Example 10) Avg MaxFold Increase. The method in brief:
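Values are fold-increase in luciferase signal relative to baseline cells without compound. The cervical carcinoma line used holds a fusion of alternatively spliced SMN2 sequence and luciferase. Readable frame, and thus signal, arises only with exon 7-including splicing.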

Series [3] can be described thus: Plasma and brain pharmacokinetics in mice. Type of series: in vivo, FVB or CD-1 mice. Conditions: single dose; for Kp / half-life / AUC: mouse; for Kp: brain and plasma, read-out: Brain/Plasma Ratio. How it is done: Compounds were formulated in solution using the method of cosolvency as described by Lee et al., Int. J. Pharmaceutics, 253: 111-119 (2003). FVB or CD-1 mice, approximately 5 weeks old, were given a single dose of compound at the indicated concentration. Compounds were administered orally, with the exception of ALB-116638 and ALB-117573, which were administered IV. Three to five mice were euthanized at various times between 15 minutes and 24 hours after dosing and brain and plasma were harvested. Tissues were homogenized in acetonitrile and analyzed on an API 4000 LC/MS/MS system coupled with an Agilent 1100 series liquid chromatograph. All pharmacokinetic analyses were conducted using WinNonlin (Version 4.01; Pharsight, Palo Alto, Calif.) with the exception of brain/plasma ratios, which were calculated using Microsoft Excel 2000. AUC values are the area under the concentration-time curve from time zero to the last measured time point. The half life values are extrapolated from 3-4 time points taken at less than 4 hours after dosing.

[4] abbreviates: SMN2-linked luciferase reporter, average.
The mark [5] stands for this setting: maximum fold increase of reporter signal, average.
[6] abbreviates: brain, 5 mg/kg, oral, read-out: Brain T½ (converted).
[7] abbreviates: plasma, 5 mg/kg, oral, read-out: Plasma T½ (converted).
[8] abbreviates: SMN2-linked luciferase reporter, average maximum fold increase.

Turning to `CC(C(=O)O)c1ccc(N2Cc3ccc(Cl)cc3C2=O)cc1` (stereo not shown) [ALB-111743], the values for the maximal fold induction in series [1] and in series [2] (setting [5]) were 2.7 and 1.67, respectively. Also, the EC50 (in general, the concentration at which the effect is half-maximal) in series [2] (setting [4]) came to 0.267 µM.
For `CCCc1ccc2c(c1)C(=O)N(c1ccc(C(C)C(=O)OC(C)(C)C)cc1)C2` (stereo not shown) [ALB-113213], in that order: 1.9, 1.23 and 0.565 µM.
For `CC(C(=O)O)c1ccc(N2Cc3ccc(N(C)C)cc3C2=O)cc1` (stereo not shown) [ALB-113648], in that order: 3.3, 1.6 and 0.028 µM.
The matching figures for `CC(C(=O)O)c1ccc(N2Cc3ccc(C(F)(F)F)cc3C2=O)cc1` (stereo not shown) [ALB-113652]: 2.9, 1.66 and 1.49 µM.
Take `Br.COCC(C)c1ccc(N2Cc3ccc(C)cc3C2=O)cc1` (stereo not shown) [ALB-113967]: the “Brain AUC” value in series [3] (5 mg/kg, oral) was 170.5 ng·h/g. Moreover, in series [3] (5 mg/kg, oral), the Kp came out at 0.29. Further, the half-life in series [3] (setting [6]) was 1.1 h; in series [3] (setting [7]), 1.5 h. Further, the exposure (AUC) (commonly the area under the concentration-time curve, a measure of exposure) in series [3] (plasma, 5 mg/kg, oral) turned out to be 595 ng·h/mL. For the same compound, the figures for the maximal fold induction in series [1] and in series [2] (setting [5]) were 2.6 and 1.54, respectively. The compound further showed an EC50 in series [2] (setting [4]) of 0.159 µM.
Regarding `CC(C)c1ccc(N2Cc3ccccc3C2=O)cc1` [ALB-114274], the maximal fold induction in series [1] came out at 2.6; in series [2] (setting [5]), 1.4. This compound registered an EC50 in series [2] (setting [4]) of 0.052 µM.
The matching figures for `COc1ccc2c(c1)C(=O)N(c1ccc(C(C)C(O)OC)cc1)C2` (stereo not shown) [ALB-114441]: 3.2, 1.67 and 0.076 µM.
As to `COCC(C)c1ccc(N2Cc3ccc(OC)cc3C2=O)cc1` (stereo not shown) [ALB-114783], the maximal fold induction came out at 2.6 in series [1] and 1.37 in series [2] (setting [5]). Besides, a half-maximal effect in series [2] (setting [4]) (EC50) was put at 0.186 µM.
For `CC(C(=O)O)c1ccc(N2Cc3cc4c(cc3C2=O)OCCO4)cc1` (stereo not shown) [ALB-114844], in that order: 2.4, 1.36 and 0.008 µM.
The matching figures for `CC(C)c1ccc(N2Cc3ccc(Br)cc3C2=O)cc1` [ALB-114901]: 2.6, 1.52 and 0.193 µM.
The matching figures for `COc1ccc2c(c1)C(=O)N(c1ccc(C)cc1)C2` [ALB-115084]: 2.3, 1.39 and 0.06 µM.
Take `COc1ccc2c(c1)C(=O)N(c1ccc(C(C)(C)C)cc1)C2` [ALB-115210]: the “Brain AUC” value is 553.8 ng·h/g in series [3] (5 mg/kg, oral) and 5950.9 ng·h/g in series [3] (25 mg/kg, oral). For the same compound, the Kp in series [3] (5 mg/kg, oral) is 51.7; in series [3] (25 mg/kg, oral) it was 15. Besides, the half-life in series [3] (setting [6]) was 0.6 h; in series [3] (brain, 25 mg/kg, oral, read-out: Brain T½ (converted)), 2.9 h; in series [3] (setting [7]), 9.4 h; in series [3] (plasma, 25 mg/kg, oral, read-out: Plasma T½ (converted)), 1.1 h. In addition, the area under the curve (AUC) stood at 10.7 ng·h/mL in series [3] (plasma, 5 mg/kg, oral) and 397 ng·h/mL in series [3] (plasma, 25 mg/kg, oral). The results for the maximal fold induction in series [1] and in series [2] (setting [5]) were 2.9 and 1.47, respectively. The compound further had an EC50 in series [2] (setting [4]) of 0.324 µM.
For the compound `Cc1ccc2c(c1)C(=O)N(c1ccc(C(C)C)cc1)C2` [ALB-115586], the values for the maximal fold induction in series [1] and in series [2] (setting [5]) were 2.3 and 1.32, respectively. The same compound registered an EC50 in series [2] (setting [4]) of 0.097 µM.
The matching figures for `Cc1cccc2c1C(=O)N(c1ccc(C(C)C)cc1)C2` [ALB-115812]: 3, 1.35 and 0.163 µM.
For `Cc1ccc2c(c1)CN(c1ccc(C(C)C)cc1)C2=O` [ALB-115948], the results for the maximal fold induction in series [1] and in series [2] (setting [5]) were 2.8 and 1.42, respectively. The same compound gave an EC50 in series [2] (setting [4]) of 0.03 µM.
The matching figures for `CCOc1ccc2c(c1)C(=O)N(c1ccc(C(C)C)cc1)C2` [ALB-116074]: 2.9, 1.51 and 0.31 µM.
`CC(C)c1ccc(N2Cc3ccc(O)cc3C2=O)cc1` [ALB-116078]: the values for the maximal fold induction in series [1] and in series [2] (setting [8]) were 3.3 and 1.64, respectively. In series [2] (setting [4]), this compound registered an EC50 of 0.267 µM.
For `CC(C)c1ccc(N2Cc3ccc(Cl)cc3C2=O)cc1` [ALB-116246], the maximal fold induction was determined as 2.7 in series [1] and 1.35 in series [2] (setting [5]). The EC50 in series [2] (setting [4]) was found to be 0.031 µM.
Turning to `CC(C)c1ccc(N2Cc3cc4c(cc3C2=O)OCO4)cc1` [ALB-116362], the maximal fold induction worked out at 2.3 in series [1] and 1.52 in series [2] (setting [8]). A half-maximal response in series [2] (setting [4]) (EC50) required 0.123 µM.
For `CC(C)c1ccc(N2Cc3ccc(N(C)S(C)(=O)=O)cc3C2=O)cc1` [ALB-116638], the “Brain AUC” value in series [3] (5 mg/kg, IV) was determined as 537.2 ng·h/g. For the same compound, in series [3] (brain, 5 mg/kg, IV, read-out: Brain T½ (converted)), the half-life is 7.3 h. Also, the response in series [2] (setting [4]) was half-maximal at 0.166 µM (EC50). In addition, the maximal fold induction in series [2] (setting [8]) was 1.51.
Turning to `CC(C)c1ccc(N2Cc3cc(Cl)ccc3C2=O)cc1` [ALB-116932], the values for the maximal fold induction in series [1] and in series [2] (setting [5]) were 2.4 and 1.45, respectively. Moreover, in series [2] (setting [4]), the EC50 is 0.081 µM.
For `COCc1ccc2c(c1)C(=O)N(c1ccc(C(C)C)cc1)C2` [ALB-116935], in series [3] (5 mg/kg, oral), the “Brain AUC” value is 338.1 ng·h/g. In addition, in series [3] (setting [6]), the half-life is 9.4 h. Further, the figures for the maximal fold induction in series [1] and in series [2] (setting [5]) were 1.9 and 1.52, respectively. This compound had an EC50 in series [2] (setting [4]) of 0.078 µM.
On to `CNc1ccc2c(c1)C(=O)N(c1ccc(C(C)C)cc1)C2` [ALB-117046], for which the maximal fold induction in series [1] is 2.9; in series [2] (setting [5]) it was 1.44. In series [2] (setting [4]), this compound had an EC50 of 0.09 µM.
Take `CCCC(C)c1ccc(N2Cc3ccc(OC)cc3C2=O)cc1` (stereo not shown) [ALB-117451]: the maximal fold induction worked out at 2.1 in series [1] and 1.74 in series [2] (setting [5]). For the same compound, a half-maximal effect in series [2] (setting [4]) (EC50) was put at 2.91 µM.
Turning to `CC(C)(C)c1ccc(N2Cc3cc4c(cc3C2=O)OCCO4)cc1` [ALB-117452], the maximal fold induction in series [1] stood at 2.2; in series [2] (setting [8]) it was 1.4. In series [2] (setting [4]), this compound registered an EC50 of 0.289 µM.
For the compound `CC(C)c1ccc(N2Cc3cccc(Cl)c3C2=O)cc1` [ALB-117454], the figures for the maximal fold induction in series [1] and in series [2] (setting [5]) were 3.1 and 1.51, respectively. In addition, the concentration giving a half-maximal response (EC50) in series [2] (setting [4]) came out at 0.47 µM.
The matching figures for `CC(C)c1ccc(N2Cc3ccc(C(F)(F)F)cc3C2=O)cc1` [ALB-117902]: 2, 1.57 and 1.1 µM.
As to `CC(C)c1ccc(N2Cc3ccc(NC(=O)N(C)C)cc3C2=O)cc1` [ALB-118731], in series [2] (setting [4]), the EC50 turned out to be 0.854 µM. Besides, the maximal fold induction in series [2] (setting [8]) was 1.2.
As to `CCN(C)C(=O)Nc1ccc2c(c1)C(=O)N(c1ccc(C(C)C)cc1)C2` [ALB-118732], in series [2] (setting [8]), the maximal fold induction amounted to 1.15.
Still for that read-out and setting: to `CC(C)c1ccc(N2Cc3ccc(NC(=O)N(C)c4ccccc4)cc3C2=O)cc1` [ALB-118733] belongs 1.12; to `CCCN(C)C(=O)Nc1ccc2c(c1)C(=O)N(c1ccc(C(C)C)cc1)C2` [ALB-118898], 1.06.
Still for that read-out and setting: the figure for `CC(C)c1ccc(N2Cc3ccc(NC(=O)N(C)C(C)C)cc3C2=O)cc1` [ALB-118899] is 1.08.
Consider `CC(C)c1ccc(N2Cc3ccc(N(C)C(=O)N(C)C)cc3C2=O)cc1` [ALB-118901], for which the EC50 in series [2] (setting [4]) was 0.493 µM. For the same compound, the maximal fold induction in series [2] (setting [8]) stood at 1.31.
The matching figures for `CC(C)(C)c1ccc(N2Cc3ccc(OC(F)F)cc3C2=O)cc1` [ALB-119043]: 0.992 µM and 1.39.
As for `COc1cc2c(cc1F)CN(c1ccc(C(C)C(=O)O)cc1)C2=O` (stereo not shown) [ALB-119048], a half-maximal response in series [2] (setting [4]) (EC50) required 0.255 µM. Besides, in series [2] (setting [5]), the maximal fold induction was determined as 1.54.
On to `CCN(C)C(=O)N(C)c1ccc2c(c1)C(=O)N(c1ccc(C(C)C)cc1)C2` [ALB-119049], for which, in series [2] (setting [8]), the maximal fold induction was found to be 1.08.
`CC(C(=O)O)c1ccc(N2Cc3ccc(OC(F)F)cc3C2=O)cc1` (stereo not shown) [ALB-119335]: the EC50 in series [2] (setting [4]) is 0.051 µM. Also, the maximal fold induction in series [2] (setting [8]) was found to be 1.54.
For `CC(C(=O)OC(C)(C)C)c1ccc(N2Cc3ccc(OC(F)F)cc3C2=O)cc1` (stereo not shown) [ALB-119336], in that order: 0.718 µM and 1.21.
In series [2] (setting [4]), `Cc1ccc(N2Cc3ccc(OC(F)F)cc3C2=O)cc1` [ALB-119515] gave a concentration for a half-maximal effect (EC50) of 0.146 µM. Besides, in series [2] (setting [8]), the maximal fold induction amounted to 1.46.
